We go through 63 compounds from US10022354B2, “Pyrrolidine amide compounds as histone demethylase inhibitors” (GENENTECH, INC., priority 2014, dated 2018).

The target of this assay is full length KDM5A enzyme (Homo sapiens (Human), UniProt P29375). The assay can be described thus: KDM5 Enzyme Assay (KDM5A HTRF). Format: biochemical. Conditions: 2 nM full length KDM5A, 100 nM H3K4Me3 peptide, 1 uM 2-OG, 30 min room temperature. How it is done:
Full length KDM5A enzyme was expressed and purified inhouse. Biotin-H3K4me3 peptide was purchased from New England Biolabs. HTRF reagents (containing Eu-labeled H3K4me1-2 antibody, and streptavidin-XL665) were purchased from Cis-Bio International. Plates were read on an Envision multi-label plate reader (Perkin Elmer).
The HTRF assay mixture contained 2 nM full length KDM5A enzyme, 100 nM H3K4Me3 peptide substrate, 1 uM 2-OG, 100 uM Fe^2+, 500 uM ascorbate. 50 mM HEPES pH 7.0 buffer, 0.01% Triton-X 100, 2 mM DTT, 0.25% DMSO at a final volume of 10 uL.
The plates were incubated at room temperature for 60 minutes and then read in the Envision plate reader.
A general note: Time-resolved FRET reads energy transfer from a long-lived donor to a nearby acceptor.

Chain of full length KDM5A enzyme (P29375 whole entry): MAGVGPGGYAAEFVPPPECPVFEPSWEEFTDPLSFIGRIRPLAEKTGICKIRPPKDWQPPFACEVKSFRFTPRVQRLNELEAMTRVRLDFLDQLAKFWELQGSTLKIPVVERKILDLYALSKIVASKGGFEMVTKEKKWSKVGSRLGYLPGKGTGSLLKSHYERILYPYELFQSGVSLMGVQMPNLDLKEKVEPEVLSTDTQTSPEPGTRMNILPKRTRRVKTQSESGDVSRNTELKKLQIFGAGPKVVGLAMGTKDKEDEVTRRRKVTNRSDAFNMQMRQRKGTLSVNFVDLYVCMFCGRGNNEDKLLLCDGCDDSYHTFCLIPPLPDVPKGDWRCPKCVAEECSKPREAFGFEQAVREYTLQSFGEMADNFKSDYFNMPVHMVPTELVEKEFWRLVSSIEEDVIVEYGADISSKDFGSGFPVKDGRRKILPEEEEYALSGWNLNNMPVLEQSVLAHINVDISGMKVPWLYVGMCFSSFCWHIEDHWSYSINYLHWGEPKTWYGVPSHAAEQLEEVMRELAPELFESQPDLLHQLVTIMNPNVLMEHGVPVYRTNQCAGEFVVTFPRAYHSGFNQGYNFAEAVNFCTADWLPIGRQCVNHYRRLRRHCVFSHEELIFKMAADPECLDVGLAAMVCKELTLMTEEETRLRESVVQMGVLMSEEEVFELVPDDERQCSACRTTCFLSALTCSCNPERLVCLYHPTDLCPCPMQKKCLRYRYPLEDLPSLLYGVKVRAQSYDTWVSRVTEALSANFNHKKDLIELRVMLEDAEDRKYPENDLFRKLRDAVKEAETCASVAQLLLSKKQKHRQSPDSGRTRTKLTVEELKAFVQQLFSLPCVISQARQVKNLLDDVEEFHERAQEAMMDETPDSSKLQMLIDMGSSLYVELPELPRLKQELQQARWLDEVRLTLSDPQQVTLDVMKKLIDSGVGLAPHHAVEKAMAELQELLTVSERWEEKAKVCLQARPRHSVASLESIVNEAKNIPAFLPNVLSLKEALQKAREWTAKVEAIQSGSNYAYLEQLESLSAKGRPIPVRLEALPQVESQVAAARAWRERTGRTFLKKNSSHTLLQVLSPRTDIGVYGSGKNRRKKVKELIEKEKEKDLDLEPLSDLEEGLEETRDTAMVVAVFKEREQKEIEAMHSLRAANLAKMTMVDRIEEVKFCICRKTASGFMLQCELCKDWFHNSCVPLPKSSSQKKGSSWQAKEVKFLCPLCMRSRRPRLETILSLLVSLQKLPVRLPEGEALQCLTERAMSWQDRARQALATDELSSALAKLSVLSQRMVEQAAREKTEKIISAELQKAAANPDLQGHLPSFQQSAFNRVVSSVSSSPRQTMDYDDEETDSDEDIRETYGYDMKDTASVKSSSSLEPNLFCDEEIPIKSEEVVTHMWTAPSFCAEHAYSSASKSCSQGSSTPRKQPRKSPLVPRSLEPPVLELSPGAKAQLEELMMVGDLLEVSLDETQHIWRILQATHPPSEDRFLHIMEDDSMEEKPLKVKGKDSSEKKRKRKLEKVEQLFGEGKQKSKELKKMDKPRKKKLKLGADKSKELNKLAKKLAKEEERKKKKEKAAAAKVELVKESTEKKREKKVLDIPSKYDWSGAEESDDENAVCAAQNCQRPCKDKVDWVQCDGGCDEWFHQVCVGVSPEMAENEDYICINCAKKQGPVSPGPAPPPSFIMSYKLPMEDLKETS

Consider `Cc1cc(-c2cnn(CCO)c2)cc(C2CCN(C(=O)c3cc(C(C)C)n[nH]3)C2)n1` (stereo not drawn) [Example 91], for which the half-inhibitory concentration (IC50) (as a rule, the point on the concentration scale where inhibition reaches its midpoint) was found to be 0.41 nM.
With `CC(C)NC(=O)NC1CCN(C(=O)c2cc(C(C)C)n[nH]2)C1` (stereo not drawn) [Example 35, 1-Isopropyl-3-(1-(3-isopropyl-1H-pyrazole-5-carbonyl)pyrrolidin-3-yl)urea] the figure was 0.083 nM; with `Cc1cc(-c2ccsc2)cc(C2CCN(C(=O)c3cc(C(C)C)n[nH]3)C2)n1` (stereo not drawn) [Example 74], 0.22 nM; with `CC(C)c1cc(C(=O)N2CCC(NC(=O)C3CCC3)C2)[nH]n1` (stereo not drawn) [Example 152], 0.083 nM.
The value for `Cc1cc(-c2ccn(C)n2)cc(C2CCN(C(=O)c3cc(C(C)C)n[nH]3)C2)n1` (stereo not drawn) [Example 93] was 0.79 nM; that for `CC(C)c1cc(C(=O)N2CCC(NC(=O)/C=C/c3ccccc3)C2)[nH]n1` (stereo not drawn) [Example 126] was 0.89 nM.
With `CCC(C)c1cc(C(=O)N2CC[C@@H](NC(=O)[C@@H]3C[C@@H]3F)C2)[nH]n1` (stereo partly drawn) [Example 190] the figure was 0.037 nM.
`Cc1nn(C2CCN(C(=O)c3cc(C(C)C)n[nH]3)C2)cc1-c1ccccc1` (stereo not drawn) [Example 236] yielded an IC50 of 0.32 nM.
The value for `Cc1cc(-c2cnn(C)c2)nc(C2CCN(C(=O)c3cc(C(C)C)n[nH]3)C2)n1` (stereo not drawn) [Example 102] was 0.76 nM.
With `CC(C)c1cc(C(=O)N2CCC(c3cc(-c4cnn(C)c4)cc(N)n3)C2)[nH]n1` (stereo not drawn) [Example 144] the figure was 0.13 nM; with `CC(C)c1cc(C(=O)N2CCC(NC(=O)c3ccc4[nH]ccc4c3)C2)[nH]n1` (stereo not drawn) [Example 121], 0.066 nM; with `Cc1cc(-c2cnn(C)c2)cc([C@@H]2CCN(C(=O)c3cc(C(C)C)n[nH]3)C2)n1` (single isomer, unassigned) [Example 2], 0.84 nM.
The value for `CCN(C(=O)c1ccccc1)C1CCN(C(=O)c2cc(C(C)C)n[nH]2)C1` (stereo not drawn) [Example 148] was 12 nM; that for `CC(C)c1cc(C(=O)N2CCC(NC(=O)c3ccc4c(ccn4C)c3)C2)[nH]n1` (stereo not drawn) [Example 178] was 0.08 nM; that for `COc1cccc(OC)c1C(=O)NC1CCN(C(=O)c2cc(C(C)C)n[nH]2)C1` (stereo not drawn) [Example 139] was 3 nM.
The compound `CC(C)(O)c1cc(C(=O)N2CCC(NC(=O)C3CC3)C2)[nH]n1` (stereo not drawn) [Example 18, N-(1-(3-(2-hydroxypropan-2-yl)-1H-pyrazole-5-carbonyl)pyrrolidin-3-yl)cyclopropanecarboxamide] registered an IC50 of 0.74 nM. This IC50 lies about 4.1-fold lower than the previous one.
The value for `Cc1ccc(C2CCN(C(=O)c3cc(C(C)C)n[nH]3)C2)nc1` (stereo not drawn) [Example 105] was 2.3 nM; that for `Cc1ccc(-c2cc(C)nc(C3CCN(C(=O)c4cc(C(C)C)n[nH]4)C3)c2)cn1` (stereo not drawn) [Example 96] was 0.62 nM; that for `CC(NC(=O)CO)c1cc(C(=O)N2CCC(NC(=O)C3CC3)C2)n[nH]1` (stereo not drawn) [Example 217] was 3.2 nM.
Compound `CC(C)c1cc(C(=O)N2CCC(NC(=O)C(C)(C)C)C2)[nH]n1` (stereo not drawn) [Example 168] returned an IC50 of 0.2 nM.
The value for `CC(C)c1cc(C(=O)N2CCC(n3ccccc3=O)C2)[nH]n1` (stereo not drawn) [Example 39, 1-(1-(3-Isopropyl-1H-pyrazole-5-carbonyl)pyrrolidin-3-yl)pyridin-2(1H)-one] was 1.2 nM; that for `Cc1cc(Oc2ccccc2)cc(C2CCN(C(=O)c3cc(C(C)C)n[nH]3)C2)n1` (stereo not drawn) [Example 7, (3-Isopropyl-1H-pyrazol-5-yl)(3-(6-methyl-4-phenoxypyridin-2-yl)pyrrolidin-1-yl)methanone] was 0.13 nM.
The value for `Cc1cc(C(=O)N2CCC(c3cc(-c4cnn(C)c4)cc(C)n3)C2)[nH]n1` (stereo not drawn) [Example 44] was 2.7 nM; that for `CC(C)c1cc(C(=O)N2CC[C@@H](NC(=O)[C@H]3C[C@@H]3F)C2)[nH]n1` [Example 231] was 0.33 nM.
The value for `CC(C)c1cc(C(=O)N2CCC(NC(=O)C3(Oc4ccccc4)CC3)C2)[nH]n1` (stereo not drawn) [Example 195] was 3.5 nM; that for `Cc1cc(-c2cnn(C)c2C)cc(C2CCN(C(=O)c3cc(C(C)C)n[nH]3)C2)n1` (stereo not drawn) [Example 89] was 0.37 nM.
`CC(C)c1cc(C(=O)N2CCC(NC(=O)c3ccccc3OC(F)(F)F)C2)[nH]n1` (stereo not drawn) [Example 142] showed an IC50 of 1.5 nM.
For the compound `CC(C)c1cc(C(=O)N2CCC(NC(=O)c3ccccc3Oc3ccccc3)C2)[nH]n1` (stereo not drawn) [Example 164], the IC50 was determined as 0.7 nM.
With `CCCC(=O)NC1CCN(C(=O)c2cc(C(C)C)n[nH]2)C1` (stereo not drawn) [Example 124] the figure was 0.15 nM; with `Cc1cc(OC(C)C)cc(C2CCN(C(=O)c3cc(C(C)C)n[nH]3)C2)n1` (stereo not drawn) [Example 9, (3-(4-Isopropoxy-6-methylpyridin-2-yl)pyrrolidin-1-yl)(3-isopropyl-1H-pyrazol-5-yl)methanone], 8.6 nM.
With `CC(C)c1cc(C(=O)N2CCC(NC(=O)C3(c4cccnc4)CC3)C2)n[nH]1` (stereo not drawn) [Example 184] the figure was 1.2 nM; with `Cc1cc(-c2cnn(CCC#N)c2)cc(C2CCN(C(=O)c3cc(C(C)C)n[nH]3)C2)n1` (stereo not drawn) [Example 98], 0.32 nM.
The value for `CC(C)c1cc(C(=O)N2CCC(c3ccc(N)cn3)C2)[nH]n1` (stereo not drawn) [Example 104] was 3.3 nM.
As for `CC(C)c1cc(C(=O)N2CC[C@@H](NC(=O)C3(C#N)CC3)C2)[nH]n1` [Example 226], the IC50 was determined as 0.23 nM. Against the preceding compound, the IC50 is about 14-fold lower.
The compound `Cc1cc(-c2cnn(-c3ccccc3)c2)cc(C2CCN(C(=O)c3cc(C(C)C)n[nH]3)C2)n1` (stereo not drawn) [Example 92] yielded an IC50 of 0.3 nM.
In turn, `CCC(=O)NC1CCN(C(=O)c2cc(C(C)C)n[nH]2)C1` (stereo not drawn) [Example 123] returned an IC50 of 0.26 nM. The IC50 values of the last two compounds are within 1.5-fold of each other.
With `O=C(NC1CCN(C(=O)c2cc(C3CCCCC3)n[nH]2)C1)C1CC1` (stereo not drawn) [Example 207] the figure was 0.42 nM.
With `CC(C)c1cc(C(=O)N2CCC(NC(=O)c3ncccn3)C2)n[nH]1` (stereo not drawn) [Example 197] the figure was 0.31 nM; with `O=C(NC1CCN(C(=O)c2cc(Cc3ccccc3)n[nH]2)C1)C1CC1` (stereo not drawn) [Example 20, N-(1-(3-benzyl-1H-pyrazole-5-carbonyl)pyrrolidin-3-yl)cyclopropanecarboxamide], 4.8 nM; with `Cc1cc(-c2ccoc2)cc(C2CCN(C(=O)c3cc(C(C)C)n[nH]3)C2)n1` (stereo not drawn) [Example 70], 0.27 nM.
The value for `CC(c1cc(C(=O)N2CCC(NC(=O)C3CC3)C2)[nH]n1)C(F)(F)F` (stereo not drawn) [Example 24, N-(1-(3-(1,1,1-trifluoropropan-2-yl)-1H-pyrazole-5-carbonyl)pyrrolidin-3-yl) cyclopropanecarboxamide] was 1.2 nM; that for `Cc1cc(-c2ccccc2Cl)cc(C2CCN(C(=O)c3cc(C(C)C)n[nH]3)C2)n1` (stereo not drawn) [Example 83] was 0.26 nM.
As for `Cc1cc(-c2cnn(CC(F)(F)F)c2)cc(C2CCN(C(=O)c3cc(C(C)C)n[nH]3)C2)n1` (stereo not drawn) [Example 90], the IC50 was 0.4 nM. This IC50 lies about 1.5-fold higher than the previous one.
With `CCc1cc(C(=O)N2CCC(c3cc(-c4cnn(C)c4)cc(C)n3)C2)[nH]n1` (stereo not drawn) [Example 45] the figure was 0.91 nM; with `CC(C)c1cc(C(=O)N2CCC(NC(=O)c3cc4ccccc4[nH]3)C2)[nH]n1` (stereo not drawn) [Example 122], 0.49 nM; with `CCOc1ccccc1C(=O)NC1CCN(C(=O)c2cc(C(C)C)n[nH]2)C1` (stereo not drawn) [Example 129], 0.047 nM.
The value for `Cc1cc(C)n(C2CCN(C(=O)c3cc(C(C)C)n[nH]3)C2)n1` (stereo not drawn) [Example 233] was 12 nM; that for `CC(C)c1cc(C(=O)N2CCC(NC(=O)C3(c4ccncc4)CC3)C2)[nH]n1` (stereo not drawn) [Example 191] was 2 nM; that for `CC(C)c1cc(C(=O)N2CCC(N3CCc4ccccc4C3=O)C2)[nH]n1` (stereo not drawn) [Example 202] was 1.5 nM.
With `CC(C)c1cc(C(=O)N2CCC(NC(=O)COc3ccccc3)C2)[nH]n1` (stereo not drawn) [Example 169] the figure was 3.1 nM.
With `CC(C)c1cc(C(=O)N2CCC(C)(NC(=O)C3CC3)C2)[nH]n1` (stereo not drawn) [Example 15, N-(1-(3-isopropyl-1H-pyrazole-5-carbonyl)-3-methylpyrrolidin-3-yl)cyclopropanecarboxamide], the IC50 stood at 2 nM.
The compound `CC(C)c1cc(C(=O)N2CCC(NC(=O)CC(F)(F)F)C2)[nH]n1` (stereo not drawn) [Example 194] showed an IC50 of 0.46 nM.
The value for `COC(C)c1cc(C(=O)N2CCC(NC(=O)C3CC3)C2)[nH]n1` (stereo not drawn) [Example 211] was 2.6 nM.
With `CC(C)c1cc(C(=O)N2CCC(NC(=O)C3(C)COC3)C2)[nH]n1` (stereo not drawn) [Example 181] the figure was 0.3 nM; with `CC(C)c1cc(C(=O)N2CCC(n3cc4c(n3)CCC4)C2)[nH]n1` (stereo not drawn) [Example 235], 0.34 nM; with `CC(C)c1cc(C(=O)N2CCC(NC(=O)C3CCOCC3)C2)[nH]n1` (stereo not drawn) [Example 154], 0.4 nM.
The value for `CC(C)c1cc(C(=O)N2CCC(n3ncc4c(F)cc(Br)cc43)C2)[nH]n1` (stereo not drawn) [Example 245] was 0.91 nM; that for `CC(C)c1cc(C(=O)N2CC[C@@H](NC(=O)C3CCO3)C2)[nH]n1` (stereo partly drawn) [Example 223] was 0.36 nM; that for `CC(O)c1cc(C(=O)N2CCC(NC(=O)C3CC3)C2)[nH]n1` (stereo not drawn) [Example 16, N-(1-(3-(1-hydroxyethyl)-1H-pyrazole-5-carbonyl)pyrrolidin-3-yl)cyclopropanecarboxamide] was 0.91 nM.
Consider `CC(C)c1cc(C(=O)N2CCC(NC(=O)c3ccn(C(C)C)n3)C2)[nH]n1` (stereo not drawn) [Example 162], for which the IC50 is 5.1 nM.
The value for `CCn1ccc(C(=O)NC2CCN(C(=O)c3cc(C(C)C)n[nH]3)C2)n1` (stereo not drawn) [Example 165] was 0.11 nM; that for `CC1CC(C(=O)NC2CCN(C(=O)c3cc(C(C)C)n[nH]3)C2)C1` (stereo not drawn) [Example 131] was 0.84 nM; that for `CC(C)c1cc(C(=O)N2CCC(NC(=O)C3CCNC3)C2)[nH]n1` (stereo not drawn) [Example 119] was 11 nM.
